Experimental data published in US8318781B2, “G-protein-conjugated receptor agonist” (Japan Science and Technology Agency, priority 2007, dated 2012).

Assays:
human GPR120 (hGPR120) = molecular target: T1, human GPR120 (hGPR120) (Homo sapiens, UniProt Q5NUL3); assay: ERK assay, screening for GPR120 ligands in cell line TXGPR120;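 on ERK/GPR120 10 μM: signals normalized between DMSO and PMA controls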; type: cell-based; settings: for selectivity for GPR120 in ERK assay (in words): GPR120 versus GPR40; for ERK activation for GPR120 (in words) / ERK/GPR120 10 μM / ERK/GPR120 100 μM: TXGPR120 cells; for ERK activation for GPR120 (in words): FIGS. 5-8; for ERK/GPR120 10 μM: ligand 10 μM; for ERK/GPR120 10 μM / ERK/GPR120 100 μM: class relative to LA; for ERK/GPR120 100 μM: ligand 100 μM
T1 construct: expressed in transfected cells; doxycycline-inducible expression vector
T1 sequence (Q5NUL3 1-361): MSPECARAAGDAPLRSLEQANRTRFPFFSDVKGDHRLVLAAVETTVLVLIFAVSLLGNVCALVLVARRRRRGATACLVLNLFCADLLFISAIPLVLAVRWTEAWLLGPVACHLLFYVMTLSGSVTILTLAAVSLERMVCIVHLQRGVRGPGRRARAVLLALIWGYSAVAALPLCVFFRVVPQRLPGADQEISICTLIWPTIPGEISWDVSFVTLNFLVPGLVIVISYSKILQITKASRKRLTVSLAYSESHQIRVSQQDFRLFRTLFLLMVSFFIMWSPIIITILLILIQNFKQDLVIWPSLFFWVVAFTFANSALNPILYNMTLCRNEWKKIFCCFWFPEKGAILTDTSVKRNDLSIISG

human GPR40 (hGPR40) = molecular target: T2, human GPR40 (hGPR40) (Homo sapiens, UniProt O14842); assay: ERK assay, screening for GPR40 ligands in cell line TXGPR40; type: cell-based; settings: TXGPR40 cells, class relative to LA; for ERK/GPR40 100 μM: ligand 100 μM
T2 construct: expressed in transfected cells; doxycycline-inducible expression vector
T2 sequence (O14842 whole entry): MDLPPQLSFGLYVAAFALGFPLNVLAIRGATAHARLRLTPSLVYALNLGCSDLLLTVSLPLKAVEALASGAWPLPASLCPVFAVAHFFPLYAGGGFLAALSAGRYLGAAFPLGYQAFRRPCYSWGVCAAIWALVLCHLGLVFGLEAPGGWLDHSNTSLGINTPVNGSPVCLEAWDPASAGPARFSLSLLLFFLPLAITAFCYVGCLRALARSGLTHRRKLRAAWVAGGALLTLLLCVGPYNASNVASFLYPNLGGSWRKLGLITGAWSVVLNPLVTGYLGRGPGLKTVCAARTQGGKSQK

| selectivity for GPR120 in ERK assay (in words) (human GPR120 (hGPR120)) | ERK activation for GPR120 (in words) (human GPR120 (hGPR120)) | ERK/GPR120 10 μM (human GPR120 (hGPR120)) | ERK/GPR120 100 μM (human GPR120 (hGPR120)) | ERK/GPR40 100 μM (human GPR40 (hGPR40)) | ERK/GPR40 10 μM (human GPR40 (hGPR40); ligand 10 μM) | SMILES |
| --- | --- | --- | --- | --- | --- | --- |
| selective for GRP120 | strongly activate ERK | +++ (+++ denotes a higher value than LA) | +++ (+++ denotes a higher value than LA) | ++ (++ denotes 50 to 100% of LA) |  | O=C(O)CCCc1ccc(OCCN(c2ccccc2)c2nccs2)cc1 [NCG46] |
| selective for GRP120 | strongly activate ERK | +++ (+++ denotes a higher value than LA) | +++ (+++ denotes a higher value than LA) | ++ (++ denotes 50 to 100% of LA) | + (+ denotes 0 to 100% of LA) | CN(C)c1ccc(N(CCOc2ccc(CCCC(=O)O)cc2)c2ccccn2)cc1 [NCG54] |
